ChEMBL document CHEMBL1201862, “PubChem BioAssay data set” (2004)
Calls of active or inactive are those of the source.

How the values were obtained:
Protein skinhead-1 = molecular target: T1, Protein skinhead-1 (Caenorhabditis elegans, UniProt P34707); format: functional
T1 sequence (P34707 whole entry): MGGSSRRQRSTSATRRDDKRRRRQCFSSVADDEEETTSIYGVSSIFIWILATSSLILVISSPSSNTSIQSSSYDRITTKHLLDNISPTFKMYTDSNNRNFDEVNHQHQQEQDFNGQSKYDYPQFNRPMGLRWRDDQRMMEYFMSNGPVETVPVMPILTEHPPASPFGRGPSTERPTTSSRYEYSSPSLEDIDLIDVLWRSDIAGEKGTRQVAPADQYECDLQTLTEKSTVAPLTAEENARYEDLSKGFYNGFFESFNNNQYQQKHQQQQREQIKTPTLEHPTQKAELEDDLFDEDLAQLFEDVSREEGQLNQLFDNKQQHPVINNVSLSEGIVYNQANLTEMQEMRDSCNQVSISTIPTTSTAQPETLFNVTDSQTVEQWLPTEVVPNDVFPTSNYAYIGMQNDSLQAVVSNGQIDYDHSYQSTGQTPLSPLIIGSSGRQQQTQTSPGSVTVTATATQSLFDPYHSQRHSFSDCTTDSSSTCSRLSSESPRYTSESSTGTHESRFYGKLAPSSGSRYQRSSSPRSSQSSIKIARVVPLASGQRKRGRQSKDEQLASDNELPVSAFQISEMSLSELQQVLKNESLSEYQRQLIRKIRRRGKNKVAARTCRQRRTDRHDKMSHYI

Streptococcus = experiment: GAS UMAA2166 growth inhibition – luminescence, BacTiterGlo, counter-screen for streptokinase expression inhibitor project, dose response (AID 1915); format: functional, organism-based;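 also: potency for reduction of bacterial viability or growth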
[1] = tested on: Streptococcus sp. 'group A'; experiment: Streptococcus pyogenes SK(-)GAS viability under kanamycin – luminescence, BacTiterGlo, confirmation, counter-screen for streptokinase expression inhibitor project, dose response (AID 1900); format: functional, organism-based
Streptokinase A = molecular target: T2, Streptokinase A (Streptococcus pyogenes serotype M1, UniProt P10520); experiment: viability-normalized secreted streptokinase activity reduction – plasminogen activation absorbance, OD405, dose response (AID 1914); format: functional, Streptococcus pyogenes M1 GAS;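 also: secreted streptokinase activity via plasminogen activation per viability signal from cell pellet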
T2 sequence (P10520 whole entry): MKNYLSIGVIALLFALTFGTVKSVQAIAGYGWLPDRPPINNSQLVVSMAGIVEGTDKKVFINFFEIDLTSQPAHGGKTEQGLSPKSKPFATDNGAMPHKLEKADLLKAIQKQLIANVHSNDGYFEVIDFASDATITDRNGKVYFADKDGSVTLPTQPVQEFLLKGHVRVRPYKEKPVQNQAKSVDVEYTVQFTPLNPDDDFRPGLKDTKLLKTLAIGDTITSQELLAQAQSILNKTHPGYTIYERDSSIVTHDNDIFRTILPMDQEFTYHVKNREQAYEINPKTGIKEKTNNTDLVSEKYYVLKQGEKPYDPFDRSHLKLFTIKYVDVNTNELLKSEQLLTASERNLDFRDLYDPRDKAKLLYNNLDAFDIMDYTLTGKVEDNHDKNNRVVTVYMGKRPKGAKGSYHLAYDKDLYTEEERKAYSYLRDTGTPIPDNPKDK

[2] = Luminescence Cell-Based Dose Retest to Confirm Inhibitors of Cancer Stem Cells. [Related pubchem assays (depositor defined):AID2717, AID2721]; format: functional; details: Homo sapiens
Cytochrome P450 3A4 = Cytochrome P450 3A4 (Homo sapiens, UniProt P08684);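 also: CYP3A4 tested as one member of a cytochrome P450 panel screen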
Cytochrome P450 1A2 = molecular target: T3, Cytochrome P450 1A2 (Homo sapiens, UniProt P05177);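 also: PubChem cytochrome P450 panel assay, CYP1A2 panel member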
T3 sequence (P05177 whole entry): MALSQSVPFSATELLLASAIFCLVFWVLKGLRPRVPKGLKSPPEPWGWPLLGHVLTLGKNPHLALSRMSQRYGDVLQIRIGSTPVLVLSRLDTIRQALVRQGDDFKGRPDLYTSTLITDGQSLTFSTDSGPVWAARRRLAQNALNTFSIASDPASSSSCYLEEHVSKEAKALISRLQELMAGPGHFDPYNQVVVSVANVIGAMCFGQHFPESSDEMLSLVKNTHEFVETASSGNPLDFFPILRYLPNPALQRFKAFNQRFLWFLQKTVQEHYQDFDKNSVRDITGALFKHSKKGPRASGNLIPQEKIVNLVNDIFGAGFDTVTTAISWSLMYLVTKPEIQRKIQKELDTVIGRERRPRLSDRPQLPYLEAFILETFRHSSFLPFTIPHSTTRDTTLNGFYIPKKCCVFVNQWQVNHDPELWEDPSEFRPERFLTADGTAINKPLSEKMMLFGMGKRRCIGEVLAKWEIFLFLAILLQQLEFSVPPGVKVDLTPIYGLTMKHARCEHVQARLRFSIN

Cytochrome P450 2C19 = Cytochrome P450 2C19 (Homo sapiens, UniProt P33261); experiment: Cytochrome panel assay with activity outcomes. Panel member name: p450-cyp2c19 Compounds with AC50 equal or less than 10 uM are considered active; format: functional; details: read-out: AC50
Cytochrome P450 2C9 = Cytochrome P450 2C9 (Homo sapiens, UniProt P11712)
Cytochrome P450 2D6 = Cytochrome P450 2D6 (Homo sapiens, UniProt P10635);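 also: CYP2D6 member of a cytochrome P450 panel assay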
INS1 = experiment: INS-1E survival protection against cytokine death – cell-based, luminescence, retest, dose response (AID 449756); format: functional; details: Rattus norvegicus;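 also: cell death triggered by IL-1 beta plus TNF-alpha plus IFN-gamma mixture; protective hits raise ATP signal compared with cytokine alone wells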
cells = format: functional

Sequence of Cytochrome P450 2C19 (P33261 whole entry): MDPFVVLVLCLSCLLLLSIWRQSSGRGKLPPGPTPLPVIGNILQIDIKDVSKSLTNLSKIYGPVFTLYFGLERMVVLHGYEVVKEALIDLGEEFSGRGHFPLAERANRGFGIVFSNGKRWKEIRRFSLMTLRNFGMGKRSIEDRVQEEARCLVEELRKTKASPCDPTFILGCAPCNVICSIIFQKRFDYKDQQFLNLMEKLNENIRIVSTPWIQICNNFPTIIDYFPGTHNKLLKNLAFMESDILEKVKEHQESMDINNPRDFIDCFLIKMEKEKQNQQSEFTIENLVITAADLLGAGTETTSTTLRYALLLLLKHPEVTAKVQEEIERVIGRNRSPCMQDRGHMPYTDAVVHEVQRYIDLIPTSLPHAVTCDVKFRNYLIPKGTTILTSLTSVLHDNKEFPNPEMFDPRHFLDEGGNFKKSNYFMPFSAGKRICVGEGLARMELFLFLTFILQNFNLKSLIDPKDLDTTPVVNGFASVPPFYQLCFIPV
Sequence of Cytochrome P450 2D6 (P10635 whole entry): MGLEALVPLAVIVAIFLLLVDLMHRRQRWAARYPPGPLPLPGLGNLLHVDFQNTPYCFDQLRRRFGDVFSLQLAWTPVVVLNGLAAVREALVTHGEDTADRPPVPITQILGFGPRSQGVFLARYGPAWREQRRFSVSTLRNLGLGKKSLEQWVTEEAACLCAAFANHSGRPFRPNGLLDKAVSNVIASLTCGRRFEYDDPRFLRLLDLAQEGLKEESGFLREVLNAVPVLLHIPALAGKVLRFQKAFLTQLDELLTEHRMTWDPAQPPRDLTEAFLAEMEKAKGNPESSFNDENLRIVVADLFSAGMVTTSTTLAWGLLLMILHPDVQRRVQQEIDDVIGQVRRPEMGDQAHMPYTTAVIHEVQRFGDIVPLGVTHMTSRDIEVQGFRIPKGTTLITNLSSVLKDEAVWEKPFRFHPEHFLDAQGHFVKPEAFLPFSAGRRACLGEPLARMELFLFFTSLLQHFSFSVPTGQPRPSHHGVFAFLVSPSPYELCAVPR
Sequence of Cytochrome P450 3A4 (P08684 whole entry): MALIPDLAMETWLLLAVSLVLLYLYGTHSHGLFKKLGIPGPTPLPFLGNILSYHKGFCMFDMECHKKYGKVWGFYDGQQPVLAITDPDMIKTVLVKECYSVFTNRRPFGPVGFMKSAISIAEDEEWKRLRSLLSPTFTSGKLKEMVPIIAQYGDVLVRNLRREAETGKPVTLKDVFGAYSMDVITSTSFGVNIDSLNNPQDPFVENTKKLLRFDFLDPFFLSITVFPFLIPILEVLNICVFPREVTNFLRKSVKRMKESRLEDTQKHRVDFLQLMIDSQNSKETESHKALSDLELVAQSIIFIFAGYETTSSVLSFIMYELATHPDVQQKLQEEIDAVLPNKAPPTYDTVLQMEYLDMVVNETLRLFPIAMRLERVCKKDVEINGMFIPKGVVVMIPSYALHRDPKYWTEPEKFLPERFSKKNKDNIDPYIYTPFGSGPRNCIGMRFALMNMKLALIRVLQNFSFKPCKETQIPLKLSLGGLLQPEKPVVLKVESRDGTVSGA
Sequence of Cytochrome P450 2C9 (P11712 whole entry): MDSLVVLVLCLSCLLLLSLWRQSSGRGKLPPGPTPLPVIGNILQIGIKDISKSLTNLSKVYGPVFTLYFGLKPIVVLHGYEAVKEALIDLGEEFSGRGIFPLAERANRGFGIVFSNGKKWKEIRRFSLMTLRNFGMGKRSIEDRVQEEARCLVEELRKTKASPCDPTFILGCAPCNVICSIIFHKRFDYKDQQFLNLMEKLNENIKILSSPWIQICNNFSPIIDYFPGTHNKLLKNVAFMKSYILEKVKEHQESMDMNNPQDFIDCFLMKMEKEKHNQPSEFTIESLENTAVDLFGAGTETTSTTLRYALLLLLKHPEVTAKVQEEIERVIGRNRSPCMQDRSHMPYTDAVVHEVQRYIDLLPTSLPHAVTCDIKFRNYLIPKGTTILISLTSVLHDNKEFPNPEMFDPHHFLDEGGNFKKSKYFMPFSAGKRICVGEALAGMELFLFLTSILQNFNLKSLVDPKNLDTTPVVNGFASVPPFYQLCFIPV

Structure (SMILES): COC(=O)c1c2c(nc3ccccc13)CCC2
- IC50 (Protein skinhead-1): > 100 µM (inactive)

Structure (SMILES): CC(C)Nc1nc(NC(C)C)nc(N(C)N)n1
- EC50 (Streptococcus): > 150 µM (not active)
- EC50 [1]: 32.9 µM (active)
- EC50 (Streptokinase A): > 150 µM (not active)

Structure (SMILES): CC(=O)Nc1ccc(SCC(=O)c2cc(C)n(-c3ccccc3)c2C)cc1
- AC50 [2]: 6.41 µM (active)

Structure (SMILES): CCOC(=O)c1cnn(-c2nc(-c3ccccc3F)cs2)c1C(F)(F)F
- EC50 (Streptococcus): 23.8 µM (active)
- EC50 [1]: 17.9 µM (active)
- EC50 (Streptokinase A): 34.3 µM (active)

Structure (SMILES): CN(CC(=O)Nc1cccc(F)c1)C(=O)CC1CC2CCC1C2 (stereo not drawn)
- IC50 (Protein skinhead-1): > 100 µM (inactive)

Structure (SMILES): COc1ccc(Oc2ncc3nc(-c4ccc(OC)cc4)c(=O)n(C)c3n2)cc1
- AC50 (Cytochrome P450 3A4): 3.98 µM (inconclusive)
- AC50 (Cytochrome P450 1A2): 3.16 µM (inconclusive)

Structure (SMILES): COc1ccc(-c2cccc([C@H]3[C@@H]4C=CCC[C@@]4(C)C(=O)N3Cc3ccccc3)c2)cc1
- AC50 [2]: 5.36 µM (active)

Structure (SMILES): Ic1ccccc1CN[C@@H]1C2CCN(CC2)[C@H]1C(c1ccccc1)c1ccccc1
- AC50 (Cytochrome P450 3A4): 20 µM (inconclusive)
- AC50 (Cytochrome P450 1A2): 12.6 µM (inconclusive)

Structure (SMILES): Cc1ccc(-c2nnn(CC(=O)NCC3COCCO3)n2)o1 (stereo not drawn)
- IC50 (Protein skinhead-1): > 100 µM (inactive)

Structure (SMILES): COC(=O)c1cc(-c2cccc(OC)c2)c2c(=O)[nH]c(=O)n(C)c2n1
- EC50 (Streptococcus): 11.7 µM (active)
- EC50 [1]: 6.29 µM (active)
- EC50 (Streptokinase A): > 150 µM (not active)

Structure (SMILES): Cc1ccc(OCCSc2nc(NC(C)C)nc(NC(C)C)n2)cc1
- EC50 (Streptococcus): 34.2 µM (active)
- EC50 [1]: 6.42 µM (active)
- EC50 (Streptokinase A): 13.9 µM (active)
- AC50 [2]: 1.11 µM (active)

Structure (SMILES): Cc1nc2ccccc2c(=O)n1NC(=O)c1ccccc1Cl
- AC50 (Cytochrome P450 3A4): 22.4 µM (inconclusive)
- AC50 (Cytochrome P450 1A2): 15.8 µM (inconclusive)

Structure (SMILES): CCCNC(=O)OC[C@@H]1O[C@H](CCO/N=C\c2ccc(C(=O)N3[C@H](c4ccc(C)cc4)[C@@H](C)CC[C@H]3C(=O)OC)cc2)C=C[C@@H]1Oc1ccc(OC)cc1
- AC50 (Cytochrome P450 2C19): 1.26 µM (inconclusive)
- AC50 (Cytochrome P450 3A4): 3.16 µM (inconclusive)

Structure (SMILES): COc1ccc(Nc2nc(N)nc(CSc3n[nH]c(-c4ccccc4)n3)n2)cc1
- AC50 (Cytochrome P450 2C9): 12.6 µM (inconclusive)
- AC50 (Cytochrome P450 2D6): 3.55 µM (inconclusive)
- AC50 (Cytochrome P450 3A4): 3.98 µM (inconclusive)

Structure (SMILES): CCCOc1ccc(OCCSc2ncccn2)cc1
- IC50 (Protein skinhead-1): 82.8 µM (inactive)

Structure (SMILES): COC(=O)c1cc(NC(=O)c2cc(-c3ccccc3Cl)oc2C(F)(F)F)ccc1N1CCOCC1
- AC50 [2]: 4.57 µM (active)

Structure (SMILES): O=C(NCc1ccccc1)C1=C[C@@H](c2csc3ccccc23)C[C@@H](OCc2ccc(CO)cc2)O1
- AC50 (INS1): 2.88 µM (active)

Structure (SMILES): O=C(NC(=S)N(Cc1ccccc1)Cc1ccccc1)c1ccccc1F
- EC50 (Streptococcus): 9.16 µM (active)
- AC50 (Cytochrome P450 2D6): 0.2 µM (inconclusive)
- EC50 [1]: 1.08 µM (active)
- EC50 (Streptokinase A): > 150 µM (not active)

Structure (SMILES): COc1ccc(NC(=O)c2cc3ccccc3o2)cc1
- IC50 (cells): > 50 µM (active)

Structure (SMILES): O=C(OCn1nnc2ccccc2c1=O)c1ccc(Br)o1
- IC50 (cells): 18.6 µM (active)

Structure (SMILES): c1nc2n(n1)C1=C(CCCC1)C1(CCCCC1)N2
- IC50 (cells): 10.1 µM (active)

Structure (SMILES): CCn1c(C)c(C)c2cc(C(=O)N3CCN(c4ccccc4)CC3)ccc21
- IC50 (Protein skinhead-1): > 100 µM (inactive)

Structure (SMILES): O=[N+]([O-])c1ccc(Nc2nccc(Cl)n2)cc1
- IC50 (Protein skinhead-1): > 100 µM (inactive)

Structure (SMILES): Cc1nc2cnc(Oc3ccccc3)nc2n(CCC#N)c1=O
- AC50 (Cytochrome P450 3A4): 25.1 µM (inconclusive)
- AC50 (Cytochrome P450 1A2): 20 µM (inconclusive)

Structure (SMILES): CCc1ccccc1NC(=O)NNS(=O)(=O)c1cc(C)ccc1C
- EC50 (Streptococcus): > 150 µM (not active)
- EC50 [1]: > 150 µM (not active)
- EC50 (Streptokinase A): 4.21 µM (active)

Structure (SMILES): C[n+]1c(/C=C/c2ccc(O)c3ncccc23)[se]c2ccccc21
- AC50 (Cytochrome P450 2C9): 6.31 µM (inconclusive)
- AC50 (Cytochrome P450 2C19): 3.98 µM (inconclusive)
- AC50 (Cytochrome P450 3A4): 3.98 µM (inconclusive)

Structure (SMILES): C[C@@H]1O[C@@H](O[C@H]2C[C@@H](O)[C@]3(CO)[C@H]4[C@H](O)C[C@]5(C)[C@@H](C6=CC(=O)OC6)CC[C@]5(O)[C@@H]4CC[C@]3(O)C2)[C@H](O)[C@H](O)[C@H]1O
- AC50 [2]: < 0.16 µM (active)

Structure (SMILES): Cc1ccn2c(NC3CCCCC3)c(-c3cccc(SC4CCCCC4)c3)nc2c1
- AC50 [2]: 2.65 µM (active)

Structure (SMILES): C=CC[C@@H](CC(=O)N(CCO)Cc1ccccc1)C(=O)N[C@H](COC(=O)[C@@H](CC=C)CC(=O)OC(C)(C)C)c1ccccc1
- AC50 (INS1): > 260 µM (inactive)

Structure (SMILES): Cc1ccccc1C(=O)Nc1scc(-c2ccc(Br)cc2)c1C(=O)O
- EC50 (Streptococcus): 7.36 µM (active)
- EC50 [1]: 3.46 µM (active)
- EC50 (Streptokinase A): > 150 µM (not active)

Structure (SMILES): CNc1oc(-c2ccc(Cl)cc2)nc1C#N
- AC50 (Cytochrome P450 2C9): 8.91 µM (inconclusive)
- AC50 (Cytochrome P450 2D6): 22.4 µM (inconclusive)
- AC50 (Cytochrome P450 3A4): 14.1 µM (inconclusive)

Structure (SMILES): COC(=O)COc1ccc(-c2ccccc2)cc1C=O
- IC50 (cells): 12.1 µM (active)

Structure (SMILES): COc1ccc(C(=O)c2ccc(OC)cc2OC)cc1
- AC50 [2]: 13.6 µM (active)

Structure (SMILES): Fc1ccc(Cn2cccc2C2=NC(c3ccccc3)CO2)cc1 (stereo not drawn)
- EC50 (Streptococcus): > 150 µM (not active)
- EC50 [1]: 16 µM (active)
- EC50 (Streptokinase A): 23.8 µM (active)

Structure (SMILES): CSc1cccc(-c2nnc(NC(=O)c3cccc(N4C(=O)CCC4=O)c3)o2)c1
- EC50 (Streptococcus): 131 µM (active)
- EC50 [1]: 4.88 µM (active)
- EC50 (Streptokinase A): > 150 µM (not active)

Structure (SMILES): O=C(NCC1CCCO1)c1ccc2c(=O)n(Cc3ccco3)c(SCC(=O)N3CCCC3)nc2c1 (stereo not drawn)
- AC50 (Cytochrome P450 2C19): 15.8 µM (inconclusive)
- AC50 (Cytochrome P450 3A4): 12.6 µM (inconclusive)

Structure (SMILES): CC(=O)c1c(C)[nH]c(C(=O)CN2CCN(S(=O)(=O)c3ccccc3)CC2)c1C
- AC50 (INS1): > 260 µM (inactive)

Structure (SMILES): O=C(C=Cc1ccco1)c1ccc2ccccc2c1
- IC50 (Protein skinhead-1): 9.38 µM (active)

Structure (SMILES): Cc1ccc(C)c(C(=O)CN2C3=NCCCN3c3ccccc32)c1
- AC50 (Cytochrome P450 2C19): 39.8 µM (inconclusive)
- AC50 (Cytochrome P450 3A4): 12.6 µM (inconclusive)

Structure (SMILES): CC(C)c1ccc(NC(=O)C(c2ccccc2)N(C)C(=O)CCc2c[nH]c3ccccc23)cc1 (stereo not drawn)
- AC50 [2]: 4 µM (active)
